Data from patent US20100196321A1, “COMPOUNDS” (GLAXOSMITHKLINE LLC, priority 2009, published 2010).

Key:
[1] = test system: sub-genomic HCV NS3-NS5B replicon of genotype 1a in Huh-7 cells; experiment: Replicon Luciferase Cell Based Assay, genotype 1a; parameters: species or system HCV genotype 1a; conditions: Hepatitis C virus, Huh-7, 48 hours
Experimental: (§1) A 10 mM stock solution in DMSO of each test compound was further diluted in DMSO in the first row of a 384-well, V-bottom microplate, to give 100 times the top concentration of the required dilution series. Dilutions of compound were prepared in 1:3 serial dilutions from the first row onwards robotically. A robot was also used to transfer 0.5 μL volumes from each dilution well into wells of white 384-well assay plates (Nunc #164610). Control wells received 0.5 μL of DMSO alone. Plates were made in duplicate for measuring HCV replication and cytotoxicity in the replicon cell lines.
(§2) Suspensions were prepared from cultures of Huh-7 cells stably transfected with sub-genomic HCV NS3—NS5B replicons of either genotype 1b (the ET subline described by Pietschmann, T., Lohmann, V., Kaul, A., Krieger, N., Rinck, G., Rutter, G., Strand, D. & Bartenschlager, R., Journal of Virology, 2002, 76, 4008-4021) or genotype 1a linked to a firefly luciferase reporter gene. Monolayers nearing confluency were stripped from growth flasks with versene-trypsin solution and the cells re-suspended in assay medium comprising DMEM (Invitrogen #11965-092) supplemented with 5% v/v foetal calf serum, 1% v/v non-essential amino acids solution, 100 units/ml penicillin, 100 μg/ml streptomycin and 2 mM GlutaMAX-1. 50 μL of suspension containing 5,000 cells of either genotype 1b or genotype 1a luciferase replicon were added to all wells, except medium controls, of the assay plate with a Multidrop Combi (Thermo Scientific Corporation) and the plate incubated for 48 hours at 37° C. in a 5% CO2 atmosphere. A solution of Steady-Glo cytolytic buffer/luciferase substrate (Promega #E2550) was prepared according to the manufacturer's instructions, and 20 μL were added to each well with a Multidrop Combi. To measure cytotoxicity, a solution of CellTiter-Glo Luminescent Cell Viability Assay reagent (Promega #G7573) was prepared according to the manufacturer's instructions, and 20 ul were added to each well with a Multidrop Combi. The plates were then read for luminescence on an Envision Multilabel Reader (Perkin Elmer)
(§3) Potency: The luminescence values from all compound-free wells containing cells were averaged to obtain a positive control value. The mean luminescence value from the compound-free wells that had received no cells was used to provide the negative (background) control value. After the subtraction of the mean background from all values, the readings from wells at each compound concentration were expressed as a percentage of the positive control signal. The quantifiable and specific reduction of luciferase signal in the presence of a drug is a direct measure of replicon inhibition. The BioAssay application and XC50 module were used to plot the curve of percentage inhibition against compound concentration and derive the 50% inhibitory concentration (IC50) for the compound.

[2] = test system: sub-genomic HCV NS3-NS5B replicon of genotype 1b (ET subline) in Huh-7 cells; experiment: Replicon Luciferase Cell Based Assay, genotype 1b; parameters: species or system HCV genotype 1b; conditions: Hepatitis C virus, Huh-7, 48 h, read-out: Genotype 1b (IC50 μM)
Experimental: as §1, §2, §3

| SMILES | IC50 [1] [µM] | IC50 [2] [µM] |
| --- | --- | --- |
| COCCN(C)C(=O)N[C@H]1CCCCC/C=C\[C@@H]2C[C@@]2(C(=O)NS(=O)(=O)C2CC2)NC(=O)[C@@H]2C[C@@H](Oc3cc(-c4nc(C5CC5)cs4)nc4c(Cl)c(OC)ccc34)CN2C1=O [Example 28, (2R,6S,13aS,14aR,16aS)-2-{[8-chloro-2-(4-cyclopropyl-1,3-thiazol-2-yl)-7-(methyloxy)-4-quinolinyl]oxy}-N-(cyclopropylsulfonyl)-6-[({methyl[2-(methyloxy)ethyl]amino}carbonyl)amino]-5,16-dioxo-1,2,3,6,7,8,9,10,11,13a,14,15,16,16a-tetradecahydrocyclopropa[e]pyrrolo[1,2-a][1,4]diazacyclopentadecine-14a(5H)-carboxamide] | < 0.01 | < 0.01 |
| CCN(C)C(=O)N[C@H]1CCCCC/C=C\[C@@H]2C[C@@]2(C(=O)NS(=O)(=O)C2CC2)NC(=O)[C@@H]2C[C@@H](Oc3cc(-c4nc(C(C)C)cs4)nc4c(C)c(OC)ccc34)CN2C1=O [Example 17] | < 0.01 | < 0.01 |
| COc1ccc2c(O[C@@H]3C[C@H]4C(=O)N[C@]5(C(=O)NS(=O)(=O)C6CC6)C[C@H]5/C=C\CCCCC[C@H](NC(N)=O)C(=O)N4C3)cc(-c3nc(C(C)C)cs3)nc2c1C [Example 3, (2R,6S,13aS,14aR,16aS)-6-[(aminocarbonyl)amino]-N-(cyclopropylsulfonyl)-2-{[8-methyl-2-[4-(1-methylethyl)-1,3-thiazol-2-yl]-7-(methyloxy)-4-quinolinyl]oxy}-5,16-dioxo-1,2,3,6,7,8,9,10,11,13a,14,15,16,16a-tetradecahydrocyclopropa[e]pyrrolo[1,2-a][1,4]diazacyclopentadecine-14a(5H)-carboxamide] | < 0.01 | < 0.01 |
| COc1ccc2c(O[C@@H]3C[C@H]4C(=O)N[C@]5(C(=O)NS(=O)(=O)C6CC6)C[C@H]5/C=C\CCCCC[C@H](NC(=O)N5CCC(C)(C)C5)C(=O)N4C3)cc(-c3nc(C(C)C)cs3)nc2c1C [Example 36, (2R,6S,13aS,14aR,16aS,Z)-N-(cyclopropylsulfonyl)-6-(3,3-dimethylpyrrolidine-1-carboxamido)-2-(2-(4-isopropylthiazol-2-yl)-7-methoxy-8-methylquinolin-4-yloxy)-5,16-dioxo-1,2,3,5,6,7,8,9,10,11,13a,14,14a,15,16,16a-hexadecahydrocyclopropa[e]pyrrolo[1,2-a][1,4]diazacyclopentadecine-14a-carboxamide] | < 0.01 | < 0.01 |
| COc1ccc2c(O[C@@H]3C[C@H]4C(=O)N[C@]5(C(=O)NS(=O)(=O)C6CC6)C[C@H]5/C=C\CCCCC[C@H](NC(=O)N(C(C)C)C(C)C)C(=O)N4C3)cc(-c3nc(C4CC4)cs3)nc2c1C [Example 8, (2R,6S,13aS,14aR,16aS)-6-({[bis(1-methylethyl)amino]carbonyl}amino)-N-(cyclopropylsulfonyl)-2-{[2-(4-cyclopropyl-1,3-thiazol-2-yl)-8-methyl-7-(methyloxy)-4-quinolinyl]oxy}-5,16-dioxo-1,2,3,6,7,8,9,10,11,13a,14,15,16,16a-tetradecahydrocyclopropa[e]pyrrolo[1,2-a][1,4]diazacyclopentadecine-14a(5H)-carboxamide] | < 0.01 | < 0.01 |
| CCN(CC)C(=O)N[C@H]1CCCCC/C=C\[C@@H]2C[C@@]2(C(=O)NS(=O)(=O)C2CC2)NC(=O)[C@@H]2C[C@@H](Oc3cc(-c4nc(C5CC5)cs4)nc4c(C)c(OC)ccc34)CN2C1=O [Example 26, (2R,6S,13aS,14aR,16aS,Z)-N-(cyclopropylsulfonyl)-2-(2-(4-cyclopropylthiazol-2-yl)-7-methoxy-8-methylquinolin-4-yloxy)-6-(3,3-diethylureido)-5,16-dioxo-1,2,3,5,6,7,8,9,10,11,13a,14,14a,15,16,16a-hexadecahydrocyclopropa[e]pyrrolo[1,2-a][1,4]diazacyclopentadecine-14a-carboxamide] | < 0.01 | < 0.01 |
